Patent US20230295157A1, “3-(1H-IMIDAZOL-2-YL)-2,3,8,8A-TETRAHYDROINDOLIZIN-5(1H)-ONE DERIVATIVES USEFUL AS FACTOR XIA INHIBITORS” (JANSSEN PHARMACEUTICA NV, priority 2020, published 2023)
Like-named read-outs stand apart in the source and are kept apart here.

Legend:
human plasma kallikrein = human plasma kallikrein (Homo sapiens (Human), UniProt P03952); test: Kallikrein inhibition assay (FLINT) utilizing a quenched AMC peptide substrate; type: biochemical; settings: 30 min preincubation, read-out: Kallikrein Kin Inh IC50
Summary of the method: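 Fluorogenic Z-Gly-Pro-Arg-AMC cleavage (50 μM substrate, 2 nM kallikrein, Tris pH 7.5, CaCl2, BSA, CHAPS, 2% DMSO) read kinetically at 340/440 nm for 30 min after 30-min compound pre-incubation. Compounds in 11-point 3-fold series from 1 μM; percent inhibition fitted to four-parameter equation for IC50.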

Factor XIa = Factor XIa (Homo sapiens (Human), UniProt P03951); test: Factor XIa inhibition assay (FLINT) utilizing a fluorophore-quencher pair peptide substrate; type: biochemical; settings: 30 min preincubation, kinetic reads over 30 min, read-out: FXIa Kin Inh IC50
Summary of the method: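 FXIa ([…]) preincubated 30 min with compound (11-point 3-fold dilution, top 100 nM, 2% DMSO), then 15 μM quenched FXI Arg146-based peptide added; Tris pH 7.5, CaCl2, BSA, CHAPS. Fluorescence 485/520 nm read kinetically every 5 min over 30 min at RT; IC50 by 4-parameter fit.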

[1] = kinetic reads over 30 min, Z-Gly-Pro-Arg-AMC substrate 50 μM
[2] = 5Fam-[…]-K5Tamra substrate 15 μM
[3] = 5Fam-KLTRAETV-K5Tamra substrate 15 μM

human plasma kallikrein, sequence (P03952 391-638): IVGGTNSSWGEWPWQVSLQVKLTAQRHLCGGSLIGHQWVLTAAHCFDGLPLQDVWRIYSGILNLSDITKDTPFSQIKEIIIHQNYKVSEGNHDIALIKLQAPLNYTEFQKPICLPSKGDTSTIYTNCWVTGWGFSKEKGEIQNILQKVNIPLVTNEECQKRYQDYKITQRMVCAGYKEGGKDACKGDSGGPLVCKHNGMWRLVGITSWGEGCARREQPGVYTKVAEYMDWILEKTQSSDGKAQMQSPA
human plasma kallikrein, sequence (P03952 20-390 partner): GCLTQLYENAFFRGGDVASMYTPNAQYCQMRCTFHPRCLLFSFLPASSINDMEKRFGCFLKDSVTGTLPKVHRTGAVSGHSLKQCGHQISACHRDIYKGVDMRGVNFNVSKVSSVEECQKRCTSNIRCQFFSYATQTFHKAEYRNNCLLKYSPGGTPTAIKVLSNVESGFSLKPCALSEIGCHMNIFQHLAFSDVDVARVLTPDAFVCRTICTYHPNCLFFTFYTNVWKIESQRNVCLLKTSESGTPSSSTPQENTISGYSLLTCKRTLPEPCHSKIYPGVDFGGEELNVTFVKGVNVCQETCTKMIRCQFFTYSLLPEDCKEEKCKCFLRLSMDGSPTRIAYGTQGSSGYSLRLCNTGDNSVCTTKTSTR
Factor XIa, sequence (P03951 388-625): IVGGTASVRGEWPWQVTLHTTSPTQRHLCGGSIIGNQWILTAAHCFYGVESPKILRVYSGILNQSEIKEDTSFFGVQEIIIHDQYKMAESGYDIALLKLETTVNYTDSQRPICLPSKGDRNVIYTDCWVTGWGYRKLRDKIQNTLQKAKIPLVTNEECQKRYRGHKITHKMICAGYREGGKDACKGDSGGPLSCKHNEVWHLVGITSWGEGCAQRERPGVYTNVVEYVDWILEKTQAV
Factor XIa, sequence (P03951 19-387 partner): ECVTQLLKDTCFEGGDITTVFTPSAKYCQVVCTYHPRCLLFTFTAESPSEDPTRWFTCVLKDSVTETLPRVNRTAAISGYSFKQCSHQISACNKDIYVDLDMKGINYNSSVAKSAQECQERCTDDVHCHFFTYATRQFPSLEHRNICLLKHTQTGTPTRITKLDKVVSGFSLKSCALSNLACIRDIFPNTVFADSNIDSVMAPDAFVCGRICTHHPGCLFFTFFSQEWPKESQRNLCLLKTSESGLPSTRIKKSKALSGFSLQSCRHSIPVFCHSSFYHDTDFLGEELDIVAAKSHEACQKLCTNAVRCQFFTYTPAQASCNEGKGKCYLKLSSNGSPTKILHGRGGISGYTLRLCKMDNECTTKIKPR

IC50 (human plasma kallikrein; [1]) [µM]	IC50 (Factor XIa; [2]) [nM]	IC50 (human plasma kallikrein; μM, kinetic reads) [µM]	IC50 (Factor XIa; [3]) [nM]	SMILES
0.005	1.3	–	–	O=C1C=C(c2c(-n3cnnn3)ccc(Cl)c2F)CC2CC[C@H](c3nc(F)c(-c4ccnc(N[C@H]5CCOC5)c4F)[nH]3)N12 (relative stereo) [Example 77, (3R*)-7-(3-chloro-2-fluoro-6-(1H-tetrazol-1-yl)phenyl)-3-(4-fluoro-5-(3-fluoro-2-(((S)-tetrahydrofuran-3-yl)amino)pyridin-4-yl)-1H-imidazol-2-yl)-2,3,8,8a-tetrahydroindolizin-5(1H)-one]
–	–	1.2	134	NC(=O)c1ccccc1-c1cnc([C@@H]2CCC3CC(c4c(-n5cnnn5)ccc(Cl)c4F)=CC(=O)N32)[nH]1 (stereo partly drawn) [Example 290, 2-(2-((3S)-7-(3-Chloro-2-fluoro-6-(1H-tetrazol-1-yl)phenyl)-5-oxo-1,2,3,5,8,8a-hexahydroindolizin-3-yl)-1H-imidazol-5-yl)benzamide]
0.002	–	–	0.5	O=C1C=C(c2c(-n3cnnn3)ccc(Cl)c2F)CC2CC[C@@H](c3ncc(-c4ccc5[nH]c(=O)ncc5c4)[nH]3)N12 (stereo partly drawn) [Example 273, 6-(2-((3S)-7-(3-Chloro-2-fluoro-6-(1H-tetrazol-1-yl)phenyl)-5-oxo-1,2,3,5,8,8a-hexahydroindolizin-3-yl)-1H-imidazol-5-yl)quinazolin-2(1H)-one]
0.0116	–	–	0.4	[2H]c1cc(-c2cnc([C@@H]3CC[C@@H]4CC(c5cc(Cl)ccc5-n5cnnn5)=CC(=O)N43)[nH]2)c(F)nc1N [Example 124, (3S,8aR)-3-[5-(6-amino-5-deuterio-2-fluoro-3-pyridyl)-1H-imidazol-2-yl]-7-[5-chloro-2-(tetrazol-1-yl)phenyl]-2,3,8,8a-tetrahydro-1H-indolizin-5-one]
0.002	1.4	–	–	Cn1c(=O)[nH]c2ccc(-c3cnc([C@@H]4CC[C@@H]5CC(c6c(-n7cnnn7)ccc(Cl)c6F)=CC(=O)N54)[nH]3)cc21 (relative stereo) [Example 300, 6-(2-((3S,8aR*)-7-(3-Chloro-2-fluoro-6-(1H-tetrazol-1-yl)phenyl)-5-oxo-1,2,3,5,8,8a-hexahydroindolizin-3-yl)-1H-imidazol-5-yl)-1-methyl-1H-benzo[d]imidazol-2(3H)-one]
0.0015	–	–	0.8	CC1=CCc2c(-c3cnc(C4CCC5CC(c6c(-n7cnnn7)ccc(Cl)c6F)=CC(=O)N54)[nH]3)ccnc21 (stereo not drawn) [Example 374, 7-(3-chloro-2-fluoro-6-(1H-tetrazol-1-yl)phenyl)-3-(5-(7-methyl-5H-cyclopenta[b]pyridin-4-yl)-1H-imidazol-2-yl)-2,3,8,8a-tetrahydroindolizin-5(1H)-one]
0.009	–	–	1	O=C(Nc1ccncc1-c1c[nH]c([C@@H]2CC[C@H]3CC(c4c(-n5cnnn5)ccc(Cl)c4F)=CC(=O)N32)n1)C1CC1 [Example 267, N-[3-[2-[(3S,8aS)-7-[3-Chloro-2-fluoro-6-(tetrazol-1-yl)phenyl]-5-oxo-2,3,8,8a-tetrahydro-1H-indolizin-3-yl]-1H-imidazol-4-yl]-4-pyridyl]cyclopropanecarboxamide]
0.162	–	–	18.8	NC(=O)c1ccc(-c2cnc([C@@H]3CC[C@H]4CC(c5c(-n6cnnn6)ccc(Cl)c5F)=CC(=O)N43)[nH]2)c(Cl)n1 [Example 228, 6-Chloro-5-(2-((3S,8aS)-7-(3-chloro-2-fluoro-6-(1H-tetrazol-1-yl)phenyl)-5-oxo-1,2,3,5,8,8a-hexahydroindolizin-3-yl)-1H-imidazol-5-yl)picolinamide]
0.0027	0.6	–	–	O=C1C=C(c2c(-n3cnnn3)ccc(Cl)c2F)C[C@H]2CC[C@@H](c3ncc(-c4ccnc(N[C@H]5CCOC5)c4F)[nH]3)N12 (single isomer, unassigned) [Example 73, (3S,8aR*)-7-(3-chloro-2-fluoro-6-(1H-tetrazol-1-yl)phenyl)-3-(5-(3-fluoro-2-(((S)-tetrahydrofuran-3-yl)amino)pyridin-4-yl)-1H-imidazol-2-yl)-2,3,8,8a-tetrahydroindolizin-5(1H)-one]
0.011	–	–	0.5	Nc1ccc(-c2cnc([C@@H]3CC[C@H]4CC(c5c(-n6cnnn6)ccc(Cl)c5F)=CC(=O)N43)[nH]2)c(F)n1 [Example 359, (3S,8aS)-3-(5-(6-Amino-2-fluoropyridin-3-yl)-1H-imidazol-2-yl)-7-(3-chloro-2-fluoro-6-(1H-tetrazol-1-yl)phenyl)-2,3,8,8a-tetrahydroindolizin-5(1H)-one]
0.0117	–	–	0.6	Nc1ccc(-c2cnc([C@H]3CC[C@@H]4CC(c5cc(Cl)ccc5-n5cnnn5)=CC(=O)N43)[nH]2)c(F)n1 (single isomer, unassigned) [Example 119, (3*R,8aR)-3-(5-(6-amino-2-fluoropyridin-3-yl-5-d)-1H-imidazol-2-yl)-7-(5-chloro-2-(1H-tetrazol-1-yl)phenyl-3-d)-2,3,8,8a-tetrahydroindolizin-5(1H)-one]
–	–	> 1	> 100	Nc1ccncc1-c1c[nH]c([C@@H]2CC[C@H]3CC(c4c(-n5cnnn5)ccc(Cl)c4F)=CC(=O)N32)n1 [Example 272, (3S,8aS)-3-(4-(4-Aminopyridin-3-yl)-1H-imidazol-2-yl)-7-(3-chloro-2-fluoro-6-(1H-tetrazol-1-yl)phenyl)-2,3,8,8a-tetrahydroindolizin-5(1H)-one]
0.0014	–	–	0.2	COC(=O)Nc1ccc(-c2cnc([C@@H]3CCC4CC(c5c(-n6cnnn6)ccc(Cl)c5F)=CC(=O)N43)[nH]2)cc1 (stereo partly drawn) [Example 355, Methyl (4-(2-((3S)-7-(3-chloro-2-fluoro-6-(1H-tetrazol-1-yl)phenyl)-5-oxo-1,2,3,5,8,8a-hexahydroindolizin-3-yl)-1H-imidazol-5-yl)phenyl)carbamate]
0.0565	–	–	36.3	O=C1C=C(c2c(-n3cnnn3)ccc(Cl)c2F)C[C@H]2CC[C@@H](c3ncc(-c4cc(F)ncc4Cl)[nH]3)N12 [Example 371, (3S,8aR)-7-(3-chloro-2-fluoro-6-(1H-tetrazol-1-yl)phenyl)-3-(5-(5-chloro-2-fluoropyridin-4-yl)-1H-imidazol-2-yl)-2,3,8,8a-tetrahydroindolizin-5(1H)-one]
0.21	7.3	–	–	[2H]C([2H])(O)c1nccc(-c2nc([C@@H]3CC[C@@H]4CC(c5c(-n6cnnn6)ccc(Cl)c5F)=CC(=O)N43)[nH]c2Br)c1F [Example 184, (3S,8aR)-3-(5-bromo-4-(3-fluoro-2-(hydroxymethyl-d2)pyridin-4-yl)-1H-imidazol-2-yl)-7-(3-choro-2-fluoro-6-(1H-tetrazol-1-yl)phenyl)-2,3,8,8a-tetrahydroindolizin-5(1H)-one]
0.0259	55	–	–	O=C1C=C(c2c(-n3cnnn3)ccc(Cl)c2F)CC2CCC(c3nc(-c4cccc(-c5ccn[nH]5)n4)c(F)[nH]3)N12 (single isomer, unassigned) [Example 66, (3S*)-3-(4-(6-(1H-pyrazol-5-yl)pyridin-2-yl)-5-fluoro-1H-imidazol-2-yl)-7-(3-chloro-2-fluoro-6-(1H-tetrazol-1-yl)phenyl)-2,3,8,8a-tetrahydroindolizin-5(1H)-one]
0.0078	–	–	2.7	O=C1C=C(c2c(-n3cnnn3)ccc(Cl)c2F)C[C@H]2CC[C@@H](c3ncc(-c4ccnc(C(F)(F)F)c4)[nH]3)N12 [Example 351, (3S,8aR)-7-(3-Chloro-2-fluoro-6-(1H-tetrazol-1-yl)phenyl)-3-(5-(2-(trifluoromethyl)pyridin-4-yl)-1H-imidazol-2-yl)-2,3,8,8a-tetrahydroindolizin-5(1H)-one]
0.0675	1.4	–	–	[2H]C([2H])([2H])C(=O)Nc1cnccc1-c1c[nH]c([C@@H]2CCC3CC(c4c(-n5cnnn5)ccc(Cl)c4F)=CC(=O)N32)n1 (stereo partly drawn) [Example 256, N-[4-[2-[(3S)-7-[3-Chloro-2-fluoro-6-(tetrazol-1-yl)phenyl]-5-oxo-2,3,8,8a-tetrahydro-1H-indolizin-3-yl]-1H-imidazol-4-yl]-3-pyridyl]-2,2,2-trideuterio-acetamide]
